Data set [1] concerns anaesthetized dog. The data set can be described thus: Antiangorous activity on anaesthetized dog: consumption of oxygen in the left ventricule and cardiac effort (KATZ's index). The format is in vivo. Particulars: for inhibition in vivo at 1.25 mg/kg / inhibition in vivo at 0.6 mg/kg / inhibition in vivo at […] / inhibition in vivo at 2.5 mg/kg / inhibition in vivo at 2.4 mg/kg / inhibition in vivo at 4.5 mg/kg / inhibition in vivo at 2.3 mg/kg: Canis lupus familiaris, iv; for inhibition in vivo at […]: 0.15 mg/kg i.v. slow perfusion. Summed up:
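Katz index taken as mean arterial pressure multiplied by ECG (D2) heart rate, and myocardial O2 use as coronary sinus flow via modified Morawitz cannula times coronary arteriovenous O2 difference. Animals: pentobarbital-anaesthetized dogs (30 mg/kg i.v.), test compounds infused slowly intravenously.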

A short description of data set [2]: in vivo. Particulars: iv; for mortality: read-out: Toxicity (Mortality); for LD50: read-out: Toxicity: LD50. The source says: *LD50 or percentage of mortality which is given between brackets
The mark [3] stands for this setting: read-out: Diminution in consumption of O2.
[4] abbreviates: read-out: Diminution in the cardiac effort (IK).
The mark [5] stands for this setting: 2.5 mg/kg i.v. slow perfusion, read-out: Diminution in consumption of O2.
Where [6] appears, read: 2.5 mg/kg i.v. slow perfusion, read-out: Diminution in the cardiac effort (IK).

Where two headings read alike, the source gives them in different places.

The mortality is the share of the test organisms that died. `COc1cc(/C=C/C(=O)N2CCN(CC(O)COc3ccc(CO)c4c3OCCO4)CC2)cc(OC)c1OC` (stereo not drawn) [760 705]: the “Diminution in consumption of O2: in time” value in data set [1] (1.25 mg/kg i.v. slow perfusion) is listed as 38 min. In addition, the “Diminution in the cardiac effort (IK): in time” value (“Diminution in the cardiac effort” below) in data set [1] (1.25 mg/kg i.v. slow perfusion) is recorded as 75 min. Also, the inhibition in vivo at 1.25 mg/kg in data set [1] (1.25 mg/kg i.v. slow perfusion, read-out: Diminution in consumption of O2) was determined as 51%; in data set [1] (1.25 mg/kg i.v. slow perfusion, read-out: Diminution in the cardiac effort (IK)), 26%. For the same compound, in data set [2] (400 mg/kg i.v.), the mortality was determined as 20%.

As to `CCCC(=O)c1ccc(OCC(O)CN2CCN(C(=O)/C=C/c3cc(OC)c(OC)c(OC)c3)CC2)c2c1OCCO2` (stereo not drawn) [760 866], in data set [1] (0.6 mg/kg i.v. slow perfusion), the “Diminution in consumption of O2: in time” value amounted to 30 min and the “Diminution in the cardiac effort” value is on record as 30 min. The inhibition in vivo at 0.6 mg/kg in data set [1] (0.6 mg/kg i.v. slow perfusion, read-out: Diminution in consumption of O2) was 54%. Moreover, the inhibition in vivo at 0.6 mg/kg in data set [1] (0.6 mg/kg i.v. slow perfusion, read-out: Diminution in the cardiac effort (IK)) came to 20%. Moreover, the mortality in data set [2] (360 mg/kg i.v.) came out at 30%.

Usually LD50 stands for the dose at which mortality reaches 50%. `COc1cc(/C=C/C(=O)N2CCN(CC(O)COc3ccc(C(C)C)cc3)CC2)cc(OC)c1OC` (stereo not drawn) [770 858]: the inhibition in vivo at […] is 16% in data set [1] (setting [3]) and 15% in data set [1] (setting [4]). For the same compound, the LD50 in data set [2] was 260 mg/kg.

With `CCNC(=O)Nc1ccc(OCC(O)CN2CCN(C(=O)/C=C/c3cc(OC)c(OC)c(OC)c3)CC2)c2c1OCCO2` (stereo not drawn) [770 307], the inhibition in vivo at […] came out at 43% in data set [1] (setting [3]) and 11% in data set [1] (setting [4]). Besides, in data set [2] (367 mg/kg i.v.), the mortality came out at 10%.

In the case of `COc1cc(/C=C/C(=O)N2CCN(CC(O)COc3cc(C(C)=O)cc4c3OCCO4)CC2)cc(OC)c1OC` (stereo not drawn) [770 590], in data set [1] (2.5 mg/kg i.v. slow perfusion), the “Diminution in consumption of O2: in time” value worked out at 45 min and the “Diminution in the cardiac effort” value is listed as 45 min. The inhibition in vivo at 2.5 mg/kg in data set [1] (setting [5]) worked out at 60%. Besides, the inhibition in vivo at 2.5 mg/kg in data set [1] (setting [6]) turned out to be 33%. The median lethal dose (LD50) in data set [2] worked out at 290 mg/kg.

Consider `COc1cc(/C=C/C(=O)N2CCN(CC(O)COc3cc(OC)c(OC)c(OC)c3C(C)=O)CC2)cc(OC)c1OC` (stereo not drawn) [760 781], for which, in data set [1] (2.4 mg/kg i.v. slow perfusion), the “Diminution in consumption of O2: in time” value was found to be 90 min and the “Diminution in the cardiac effort” value is listed as 45 min. Further, the inhibition in vivo at 2.4 mg/kg in data set [1] (2.4 mg/kg i.v. slow perfusion, read-out: Diminution in consumption of O2) was 70%. The inhibition in vivo at 2.4 mg/kg in data set [1] (2.4 mg/kg i.v. slow perfusion, read-out: Diminution in the cardiac effort (IK)) was 15%. Besides, in data set [2] (377 mg/kg i.v.), the mortality was found to be 0%.

With `COc1cc(/C=C/C(=O)N2CCN(CC(O)COc3ccccc3C#N)CC2)cc(OC)c1OC` (stereo not drawn) [760 389], in data set [1] (4.5 mg/kg i.v. slow perfusion), the “Diminution in consumption of O2: in time” value is given as 60 min and the “Diminution in the cardiac effort” value was determined as 60 min. Further, in data set [1] (4.5 mg/kg i.v. slow perfusion, read-out: Diminution in consumption of O2), the inhibition in vivo at 4.5 mg/kg amounted to 70%. Also, the inhibition in vivo at 4.5 mg/kg in data set [1] (4.5 mg/kg i.v. slow perfusion, read-out: Diminution in the cardiac effort (IK)) turned out to be 55%. Also, the LD50 in data set [2] is 245 mg/kg.

As to `COc1cc(/C=C/C(=O)N2CCN(CC(O)COc3ccc(Cl)cc3)CC2)cc(OC)c1OC` (stereo not drawn) [760 476], in data set [1] (2.3 mg/kg i.v. slow perfusion), the “Diminution in consumption of O2: in time” value was 23 min and the “Diminution in the cardiac effort” value is given as 15 min. The inhibition in vivo at 2.3 mg/kg in data set [1] (2.3 mg/kg i.v. slow perfusion, read-out: Diminution in consumption of O2) came to 70%. In addition, in data set [1] (2.3 mg/kg i.v. slow perfusion, read-out: Diminution in the cardiac effort (IK)), the inhibition in vivo at 2.3 mg/kg was 5%. For the same compound, the LD50 in data set [2] amounted to 185 mg/kg.

In the case of `COc1cc(/C=C/C(=O)N2CCN(CC(O)COc3ccc(C(C)=O)c4c3OCCO4)CC2)cc(OC)c1` (stereo not drawn) [770 538], the “Diminution in consumption of O2: in time” value in data set [1] (2.5 mg/kg i.v. slow perfusion) came out at 15 min. Moreover, the “Diminution in the cardiac effort” value in data set [1] (2.5 mg/kg i.v. slow perfusion) is 25 min. Moreover, the figures for the inhibition in vivo at 2.5 mg/kg in data set [1] (setting [5]) and in data set [1] (setting [6]) were 54% and 28%, respectively. Besides, in data set [2], the LD50 was found to be 198 mg/kg.

With `CCCCNC(=O)Nc1ccc(OCC(O)CN2CCN(C(=O)/C=C/c3cc(OC)c(OC)c(OC)c3)CC2)c2c1OCCO2` (stereo not drawn) [770 634], the inhibition in vivo at […] in data set [1] (setting [3]) turned out to be 69%; in data set [1] (setting [4]), 27%. Moreover, the mortality in data set [2] (400 mg/kg i.v.) came out at 30%.

Regarding `CNC(=O)Nc1ccc(OCC(O)CN2CCN(C(=O)/C=C/c3cc(OC)c(OC)c(OC)c3)CC2)c(OC)c1OC` (stereo not drawn) [770 992], in data set [1] (2.5 mg/kg i.v. slow perfusion), the “Diminution in consumption of O2: in time” value was found to be 40 min and the “Diminution in the cardiac effort” value came to 30 min. The inhibition in vivo at 2.5 mg/kg in data set [1] (setting [5]) stood at 77%. For the same compound, the inhibition in vivo at 2.5 mg/kg in data set [1] (setting [6]) worked out at 36%. The mortality in data set [2] (400 mg/kg i.v.) is 0%.

In the case of `COc1cc(/C=C/C(=O)N2CCN(CC(O)COc3cccc4c3OCCO4)CC2)cc(OC)c1OC` (stereo not drawn) [760 519], in data set [1] (2.5 mg/kg i.v. slow perfusion), the “Diminution in consumption of O2: in time” value is reported as 15 min and the “Diminution in the cardiac effort” value was found to be 15 min. The inhibition in vivo at 2.5 mg/kg in data set [1] (setting [5]) was found to be 51%. Besides, the inhibition in vivo at 2.5 mg/kg in data set [1] (setting [6]) was 11%. In addition, the median lethal dose (LD50) in data set [2] is 218 mg/kg.

Source of the values: patent US4178442A, “Novel cinnamoyles piperazines and homopiperazines, the method of preparing them and their application in therapeutics” (Delalande S. A., priority 1977, dated 1979).
